Key:
adipocyte strain 3T3L-1 [1] = experiment: Differentiation of precursor adipocytes into adipocytes (Oil Red O staining, absorbance of extract); assay type: cell-based; details: culture for 13 days; for Absorbance (490 nm): Oil Red O extracted with isopropanol, Control 0.266
Description: (§1) Therefore, effect of the medicaments of the present invention on enhancement of differentiation of precursor adipocytes into adipocytes was examined by using an adipocyte strain 3T3L-1 (obtained from Japanese Cancer Research Resource Bank) according to the published method (Endocrinology, 137, 4706, 1996). The cells were cultured in a culture dish having a diameter of 6 cm as a monolayer, and added with HX600, HX-620, HX-630, or HX-640 when the cells reached a density at which the cells began to contact with one another. After the culture for 13 days, lipid droplets in the cells were stained with Oil Red O. The dye was extracted with 1.0 ml of isopropanol (a modified method described in Methods in Enzymology, 32, 192), and absorbance (490 nm) of the extract was measured and used as index of differentiation into adipocytes.

adipocyte strain 3T3L1 = experiment: Enhancement of the differentiation of precursor adipocytes into adipocytes induced by a thiazoline compound (troglitazone); assay type: cell-based; details: for Absorbance (490 nm): single compound 10^−7 M, culture 10 days, Control 0.086
Description: The culture was continued for 10 days.

adipocyte strain 3T3L-1 [2] = experiment: Enhancement of the differentiation of precursor adipocytes into adipocytes induced by insulin; assay type: cell-based; details: for Absorbance (490 nm): culture 9 days, Not added 0.072
Description: as §1
Synergistic effect of insulin used for therapeutic treatment of diabetes and the medicament of the present invention was examined. Cells of the adipocyte strain 3T3L-1 were cultured in a culture dish having a diameter of 3.5 cm as a monolayer, and added with 10 μg/ml of insulin and HX-600 (10^−6 M or 10^−8 M) when the cells reached a density at which the cells began to contact with one another. The culture was continued for 9 days.

[3] = tested on: diabetic mice (C57BL/6J-Lepob); experiment: Hypoglycemic action in diabetes model mice (blood glucose and acylglycerol level); assay type: in vivo; details: for Blood acylglyerol level, percentage based on the control group / Blood glucose level, percentage based on the control group / Blood acylglyerol level / Blood glucose level: 6th day; for Blood acylglyerol level: Control 132 ± 14; for Blood glucose level: Control 428 ± 82
Description: Experiments were performed by using diabetic mice hereditarily have pathological conditions of fatness, hyperglycemia, and hyperlipidemia (C57BL/6J-Lepob, female, Jackson Laboratory, 10-week old) according to the method described in the literature (Diabetologia, 14, 141, 1978). Blood samples were collected one day before the start of the administration, and the mice were divided into three groups (one group consisted of 4 or 5 mice). One group was used as a medication group, and each mouse of the group was orally administered with HX-600 suspended in 0.1% carboxymethylcellulose as microparticules (30 mg/kg/day or 100 mg/kg/day) every day for 6 days. Mice of the control group were orally administered with only 0.1% carboxymethylcellulose. On the 6th day after the start of the administration, blood samples were collected from ophthalmic fundus veins.
Blood glucose level was measured by the glucose oxidase method (Fuji Drychem Slide GLU-P), and acylglycerol level was measured by the glycerol phosphate dehydrogenase method (Fuji Drychem Slide TG-P). As a measurement apparatus, Fuji Drychem 5000 was used. […] Percentages based on the control group are also indicated.

[4] = 30 mg/kg/day and 100 mg/kg/day, 6th day of the administration

Compound: 4-[2,3-(2,5-dimethyl-2,5-hexano)dibenzo[b,e]azepin-11-yl]benzoic acid [HX-640]
- Absorbance (490 nm) (adipocyte strain 3T3L-1 [1]; 10^−6 M): 0.825
- Absorbance (490 nm) (adipocyte strain 3T3L-1 [1]; 10^−7 M): 0.694
- Absorbance (490 nm) (adipocyte strain 3T3L-1 [1]; 10^−8 M): 0.365
- differentiation of precursor adipocyte 3T3L-1 into adipocytes (in words) (adipocyte strain 3T3L-1 [1]): strongly promoted

Compound: Cc1c(C)c2c(c(C)c1O)CCC(C)(COc1ccc(CC3SC(=O)NC3=O)cc1)O2 (stereo not drawn) [CS-045, troglitazone, reference compound]
- Absorbance (490 nm) (adipocyte strain 3T3L1): 0.171

Compound: CN1c2ccccc2N=C(c2ccc(C(=O)O)cc2)c2cc3c(cc21)C(C)(C)CCC3(C)C [HX-600, 4-[5H-2,3-(2,5-dimethyl-2,5-hexano)-5-methyldibenzo [b,e][1,4]diazepin-11-yl]benzoic acid]
- Absorbance (490 nm) (adipocyte strain 3T3L-1 [1]; 10^−6 M): 0.690
- Absorbance (490 nm) (adipocyte strain 3T3L-1 [1]; 10^−7 M): 0.445
- Absorbance (490 nm) (adipocyte strain 3T3L-1 [1]; 10^−8 M): 0.274
- differentiation of precursor adipocyte 3T3L-1 into adipocytes (in words) (adipocyte strain 3T3L-1 [1]): strongly promoted
- action of inducing differentiation into adipocytes by CS-045 (in words) (adipocyte strain 3T3L1; HX600 10^−7 M with CS-045 10^−7 M, 10 days): synergistically promoted
- Absorbance (490 nm) (adipocyte strain 3T3L1): 0.131
- Absorbance (490 nm) (adipocyte strain 3T3L-1 [2]; HX-600 10^−6 M alone): 0.287
- differentiation into adipocytes induced by the action of insulin (in words) (adipocyte strain 3T3L-1 [2]; HX-600 10^−6 M and 10^−8 M with insulin 10 μg/ml, 9 days): synergistically promoted
- Absorbance (490 nm) (adipocyte strain 3T3L-1 [2]; HX-600 10^−8 M alone): 0.118
- acylglycerol level versus the control group (in words) [3, 4]: remarkably lower
- blood glucose level versus the control group (in words) [3, 4]: remarkably lower
- Blood acylglyerol level, percentage based on the control group ([3]; 30 mg/kg/day oral for 6 days): 79.5%
- Blood glucose level, percentage based on the control group ([3]; 30 mg/kg/day oral for 6 days): 60.3%
- Blood acylglyerol level ([3]; 30 mg/kg/day oral for 6 days): 105 ± 14 mg/dL
- Blood glucose level ([3]; 30 mg/kg/day oral for 6 days): 258 ± 56 mg/dL
- Blood acylglyerol level, percentage based on the control group ([3]; 100 mg/kg/day oral for 6 days): 72.7%
- Blood glucose level, percentage based on the control group ([3]; 100 mg/kg/day oral for 6 days): 55.6%
- Blood acylglyerol level ([3]; 100 mg/kg/day oral for 6 days): 96 ± 11 mg/dL
- Blood glucose level ([3]; 100 mg/kg/day oral for 6 days): 238 ± 59 mg/dL

Compound: CC1(C)CCC(C)(C)c2cc3c(cc21)Oc1ccccc1N=C3c1ccc(C(=O)O)cc1 [HX-620, 4-[2,3-(2,5-dimethyl-2,5-hexano)dibenzo[b,f][1,4]oxazepin-11-yl]benzoic acid]
- Absorbance (490 nm) (adipocyte strain 3T3L-1 [1]; 10^−6 M): 0.543
- Absorbance (490 nm) (adipocyte strain 3T3L-1 [1]; 10^−7 M): 0.308
- Absorbance (490 nm) (adipocyte strain 3T3L-1 [1]; 10^−8 M): 0.225
- differentiation of precursor adipocyte 3T3L-1 into adipocytes (in words) (adipocyte strain 3T3L-1 [1]): strongly promoted

Compound: CC1(C)CCC(C)(C)c2cc3c(cc21)Sc1ccccc1N=C3c1ccc(C(=O)O)cc1 [HX-630, 4-[2,3-(2,5-dimethyl-2,5-hexano)dibenzo[b,f][1,4]thiazepin-11-yl]benzoic acid]
- Absorbance (490 nm) (adipocyte strain 3T3L-1 [1]; 10^−6 M): 0.745
- Absorbance (490 nm) (adipocyte strain 3T3L-1 [1]; 10^−7 M): 0.471
- Absorbance (490 nm) (adipocyte strain 3T3L-1 [1]; 10^−8 M): 0.298
- differentiation of precursor adipocyte 3T3L-1 into adipocytes (in words) (adipocyte strain 3T3L-1 [1]): strongly promoted

Compound: insulin
- Absorbance (490 nm) (adipocyte strain 3T3L-1 [2]; insulin 10 μg/ml alone): 0.301
